The values below come from ChEMBL document CHEMBL4619824, “Identification of Novel Rho-Kinase-II Inhibitors with Vasodilatory Activity” (ACS Med Chem Lett, 2020).

The assay has as its target Rho-associated protein kinase 2 (Homo sapiens, UniProt O75116). The experiment in a line: Inhibition of ROCK2 (unknown origin) assessed as phosphorylation of MYPT1 using Tetramethylbenzidine as substrate in presence of ATP.

Sequence of Rho-associated protein kinase 2 (O75116 whole entry): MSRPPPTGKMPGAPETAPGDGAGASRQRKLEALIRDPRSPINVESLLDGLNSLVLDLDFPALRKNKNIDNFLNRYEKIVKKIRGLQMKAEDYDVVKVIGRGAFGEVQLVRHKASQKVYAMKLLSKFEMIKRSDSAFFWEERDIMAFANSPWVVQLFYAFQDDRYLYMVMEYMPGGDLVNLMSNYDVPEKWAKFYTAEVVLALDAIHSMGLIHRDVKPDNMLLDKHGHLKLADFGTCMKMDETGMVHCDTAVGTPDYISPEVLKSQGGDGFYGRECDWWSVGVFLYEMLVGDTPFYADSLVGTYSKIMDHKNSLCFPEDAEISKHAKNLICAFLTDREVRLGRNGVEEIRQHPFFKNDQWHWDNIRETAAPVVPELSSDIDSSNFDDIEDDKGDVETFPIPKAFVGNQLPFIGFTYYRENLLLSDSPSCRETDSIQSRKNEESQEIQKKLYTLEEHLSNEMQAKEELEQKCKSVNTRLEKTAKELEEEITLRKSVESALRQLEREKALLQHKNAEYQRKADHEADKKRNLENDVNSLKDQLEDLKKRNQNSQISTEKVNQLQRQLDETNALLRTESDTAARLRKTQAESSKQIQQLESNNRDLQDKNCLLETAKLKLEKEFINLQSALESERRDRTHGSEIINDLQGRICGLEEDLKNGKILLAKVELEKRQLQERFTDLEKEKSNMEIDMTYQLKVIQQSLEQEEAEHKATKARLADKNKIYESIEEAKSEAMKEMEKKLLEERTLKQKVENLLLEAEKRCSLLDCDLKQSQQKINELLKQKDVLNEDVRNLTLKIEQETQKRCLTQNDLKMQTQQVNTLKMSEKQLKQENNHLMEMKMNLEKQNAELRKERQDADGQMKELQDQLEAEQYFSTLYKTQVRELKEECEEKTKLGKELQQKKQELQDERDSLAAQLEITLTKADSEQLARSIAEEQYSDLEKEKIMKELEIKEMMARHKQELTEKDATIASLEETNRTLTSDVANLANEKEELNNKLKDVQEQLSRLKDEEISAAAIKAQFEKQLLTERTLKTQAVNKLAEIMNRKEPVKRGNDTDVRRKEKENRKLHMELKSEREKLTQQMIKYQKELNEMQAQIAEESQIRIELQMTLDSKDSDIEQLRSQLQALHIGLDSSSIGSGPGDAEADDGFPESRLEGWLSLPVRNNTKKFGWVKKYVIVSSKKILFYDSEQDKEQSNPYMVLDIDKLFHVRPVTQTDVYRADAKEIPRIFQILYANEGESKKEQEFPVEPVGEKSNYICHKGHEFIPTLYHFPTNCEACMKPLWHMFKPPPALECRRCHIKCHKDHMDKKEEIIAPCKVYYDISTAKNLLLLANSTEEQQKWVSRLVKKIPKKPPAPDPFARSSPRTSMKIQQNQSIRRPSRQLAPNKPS

Usually IC50 stands for the concentration that gives 50% inhibition. On to `COC(=O)c1ccc(N(C)C(C(=O)c2ccccc2)c2ccccc2)cc1` (stereo not drawn), for which the IC50 came to 9.01 nM.

In the case of `CCC(O)CNCc1ccnc2ccc(OC)cc12` (stereo not drawn), the IC50 worked out at 8.02 nM.

On to `COCSC(C)CCSCCO` (stereo not drawn), for which the IC50 is 8.4 nM.
